Compared with `CCNC(=S)Nc1cnc2ccc(Nc3ccc(Cl)cc3)nc2n1` [Compound 217, 1-[6-(4-Chloro-phenylamino)-pyrido[2,3-b]pyrazin-3-yl]-3-ethyl-thiourea], `CCNC(=S)Nc1cnc2ccc(Nc3ccc(C)cc3)nc2n1` [Compound 25, 1-Ethyl-3-(6-p-tolylamino-pyrido[2,3-b]pyrazin-3-yl)-thiourea] is higher in melting point: 185 °C for the first, 195 °C for the second.

First: CCNC(=O)Nc1ccc2ncc(-c3ccc(OS(C)(=O)=O)c(OC)c3)nc2n1 [Compound 43, Methanesulfonic acid 4-[6-(3-ethyl-ureido)-pyrido[2,3-b]pyrazin-3-yl]-2-methoxy-phenyl ester]
Second: CCNC(=O)Nc1ccc2ncc(-c3cccc(C)c3)nc2n1 [Compound 100, 1-Ethyl-3-(3-m-tolyl-pyrido[2,3-b]pyrazin-6-yl)-urea]
The melting point of the first is higher: 246 to 249 °C for the first, 232 to 234 °C for the second.

Compared with `CCNC(=S)Nc1cnc2ccc(-c3ccc(C)cc3)nc2n1` [Compound 651, 1-Ethyl-3-(6-p-tolyl-pyrido[2,3-b]pyrazin-3-yl)-thiourea], `CCNC(=S)Nc1ccc2ncc(-c3cc(C)c(O)c(C)c3)nc2n1` [Compound 125, 1-Ethyl-3-[3-(4-hydroxy-3,5-dimethyl-phenyl)-pyrido[2,3-b]pyrazin-6-yl]-thiourea] is higher in melting point: 230 to 231 °C for the first, 244 °C for the second.

First: CCNC(=O)Nc1ccc2ncc(Nc3ccc(N(C)C)cc3)nc2n1 [Compound 169, 1-[3-(4-Dimethylamino-phenylamino)-pyrido[2,3-b]pyrazin-6-yl]-3-ethyl-urea]
Second: CCNC(=O)Nc1cnc2ccc(Nc3ccc(C)c(OC)c3)nc2n1 [Compound 209, 1-Ethyl-3-[6-(3-methoxy-4-methyl-phenylamino)-pyrido[2,3-b]pyrazin-3-yl]-urea]
The melting point of the first is lower: 228 °C for the first, 255 °C for the second.

First: CCNC(=S)Nc1cnc2ccc(Nc3cccc(CC(=O)O)c3)nc2n1 [Compound 195, {3-[3-(3-Ethyl-thioureido)-pyrido[2,3-b]pyrazin-6-ylamino]-phenyl}-acetic acid]
Second: CCNC(=S)Nc1cnc2ccc(Nc3ccc(O)c(Cl)c3)nc2n1 [Compound 208, 1-[6-(3-Chloro-4-hydroxy-phenylamino)-pyrido[2,3-b]pyrazin-3-yl]-3-ethyl-thiourea]
The melting point of the first is higher: 248 °C for the first, 203 °C for the second.

Going from `COc1cc(Nc2cnc3ccc(NC(=S)Nc4c(C)noc4C)nc3n2)cc(OC)c1OC` [Compound 695, 1-(3,5-Dimethyl-isoxazol-4-yl)-3-[3-(3,4,5-trimethoxy-phenylamino)-pyrido[2,3-b]pyrazin-6-yl]-thiourea] to `COc1cc(Nc2cnc3ccc(NC(=S)NC(C)c4ccccc4)nc3n2)cc(OC)c1OC` (stereo not shown) [Compound 711, 1-(1-Phenyl-ethyl)-3-[3-(3,4,5-trimethoxy-phenylamino)-pyrido[2,3-b]pyrazin-6-yl]-thiourea], the melting point rises from 247 °C to 248 °C.

First: CCNC(=O)Nc1ccc2ncc(-c3cc(C)cc(Br)c3OC)nc2n1 [Compound 110, 1-[3-(3-Bromo-2-methoxy-5-methyl-phenyl)-pyrido[2,3-b]pyrazin-6-yl]-3-ethyl-urea]
Second: CCNC(=O)Nc1ccc2ncc(-c3cc(Cl)ccc3Cl)nc2n1 [Compound 92, 1-[3-(2,5-Dichloro-phenyl)-pyrido[2,3-b]pyrazin-6-yl]-3-ethyl-urea]
The melting point of the first is lower: 228 to 230 °C for the first, 264 to 269 °C for the second.

First: CCNC(=O)Nc1ccc2ncc(-c3cccc(C#N)c3)nc2n1 [Compound 114, 1-[3-(3-Cyano-phenyl)-pyrido[2,3-b]pyrazin-6-yl]-3-ethyl-urea]
Second: CCNC(=O)Nc1ccc2ncc(-c3cccc(CO)c3)nc2n1 [Compound 115, 1-Ethyl-3-[3-(3-hydroxymethyl-phenyl)-pyrido[2,3-b]pyrazin-6-yl]-urea]
The melting point of the first is higher: 253 to 257 °C for the first, 200 to 202 °C for the second.

Compared with `CCNC(=O)Nc1ccc2ncc(-c3ccccc3OCc3ccccc3)nc2n1` [Compound 57, 1-[3-(2-Benzyloxy-phenyl)-pyrido[2,3-b]pyrazin-6-yl]-3-ethyl-urea], `CCNC(=O)Nc1ccc2ncc(-c3cccc(Cl)c3F)nc2n1` [Compound 99, 1-[3-(3-Chloro-2-fluoro-phenyl)-pyrido[2,3-b]pyrazin-6-yl]-3-ethyl-urea] is higher in melting point: 181 to 183 °C for the first, 275 °C for the second.

First: CCNC(=O)Nc1cnc2ccc(N3CCOCC3)nc2n1 [Compound 225, 1-Ethyl-3-(6-morpholin-4-yl-pyrido[2,3-b]pyrazin-3-yl)-urea]
Second: CCNC(=O)Nc1ccc2ncc(Nc3ccc(O)cc3C)nc2n1 [Compound 394, 1-Ethyl-3-[3-(4-hydroxy-2-methyl-phenylamino)-pyrido[2,3-b]pyrazin-6-yl]-urea]
The melting point of the first is lower: 243 to 245 °C for the first, 272 °C for the second.

Compared with `CCOc1ccc(NC(=O)Nc2cnc3ccc(-c4ccc(O)c(OC)c4)nc3n2)cc1` [Compound 624, 1-(4-Ethoxy-phenyl)-3-[6-(4-hydroxy-3-methoxy-phenyl)-pyrido[2,3-b]pyrazin-3-yl]-urea], `COc1cc(-c2ccc3ncc(NC(=O)NC(C)(C)CC(C)(C)C)nc3n2)ccc1O` [Compound 613, 1-[6-(4-Hydroxy-3-methoxy-phenyl)-pyrido[2,3-b]pyrazin-3-yl]-3-(1,1,3,3-tetramethyl-butyl)-urea] is lower in melting point: 242 to 245 °C for the first, 232 to 236 °C for the second.

Compared with `C=CCNC(=O)Nc1cnc2ccc(-c3cc(C)c(O)c(C)c3)nc2n1` [Compound 587, 1-Allyl-3-[6-(4-hydroxy-3,5-dimethyl-phenyl)-pyrido[2,3-b]pyrazin-3-yl]-urea], `CCNC(=O)Nc1cnc2ccc(-c3cc(C)c(O)c(Cl)c3)nc2n1` [Compound 642, 1-[6-(3-Chloro-4-hydroxy-5-methyl-phenyl)-pyrido[2,3-b]pyrazin-3-yl]-3-ethyl-urea] is higher in melting point: 210 to 212 °C for the first, 266 °C for the second.

First: Cc1cc(-c2ccc3ncc(NC(=O)Nc4ccccc4)nc3n2)cc(C)c1O [Compound 595, 1-[6-(4-Hydroxy-3,5-dimethyl-phenyl)-pyrido[2,3-b]pyrazin-3-yl]-3-phenyl-urea]
Second: CCNC(=O)Nc1ccc2ncc(-c3ccc(NC(=O)CCC(=O)OC)cc3)nc2n1 [Compound 76, N-{4-[6-(3-Ethyl-ureido)-pyrido[2,3-b]pyrazin-3-yl]-phenyl}-succinamic acid methyl ester]
The melting point of the first is higher: 271 to 273 °C for the first, 253 °C for the second.

In the case of `CCNC(=S)Nc1ccc2ncc(Nc3cc(Cl)c(Cl)c(Cl)c3)nc2n1` [Compound 465, 1-Ethyl-3-[3-(3,4,5-trichloro-phenylamino)-pyrido[2,3-b]pyrazin-6-yl]-thiourea], the melting point is reported as 277 °C.

In the case of `CCNC(=O)Nc1ccc2ncc(-c3ccc(N)c([N+](=O)[O-])c3)nc2n1` [Compound 78, 1-[3-(4-Amino-3-nitro-phenyl)-pyrido[2,3-b]pyrazin-6-yl]-3-ethyl-urea], the melting point is reported as > 350 °C.
In the case of `CCNC(=O)Nc1ccc2ncc(-c3cc4ccccc4[nH]3)nc2n1` [Compound 70, 1-Ethyl-3-[3-(1H-indol-2-yl)-pyrido[2,3-b]pyrazin-6-yl]-urea], the melting point is reported as > 300 °C.
With `CCNC(=O)Nc1cnc2ccc(-c3cc(Cl)c(O)c(Cl)c3)nc2n1` [Compound 9, 1-[6-(3,5-Dichloro-4-hydroxy-phenyl)-pyrido[2,3-b]pyrazin-3-yl]-3-ethyl-urea] the melting point was > 300 °C.
For `CCNC(=O)Nc1cnc2ccc(-c3cc(OC)c(OC)c(OC)c3)nc2n1` [Compound 23, 1-Ethyl-3-[6-(3,4,5-trimethoxy-phenyl)-pyrido[2,3-b]pyrazin-3-yl]-urea], the melting point was > 230 °C.

Source: patent US8536332B2, “Modulating signal transduction pathways with substituted pyridol [2,3-b] pyrazines” (Aeterna Zentaris GmbH, priority 2007, dated 2013)
